Test results from PMC12491518, “Fabrication of cytotoxic mirror image nanopores” (Nature Communications, 2025).
Where a SMILES comes first, the peptide text is derived from it. [ ]: non-standard residue; d: D form.

What was measured:
[1] = system: MDA-MB-231 cells; experiment: Cell membrane integrity by CellMask Deep Red staining; format: cell-based, human; details: 25 µM, 24 h
Method: MDA-MB-231 cells were seeded in a 24-well plate (Thermo Fisher Scientific, 142475) containing sterilized coverslips (Blue star, Microscopic cover glass circular 12 mm 10 gm) at a cell density of 3 × 10^4 cells per well. 24 h post-seeding, cells were treated with DpPorA DE peptide, 5-FAM-DpPorA DE peptide, or a corresponding concentration of DDM. After 24 h of treatment, cells were stained with CellMask Deep Red (Thermo Fisher Scientific, C10046; 1:4000 dilution in PBS) for 5 min at 37 °C. After membrane staining, the cells were washed with PBS and fixed in 2% PFA (Himedia, TCL119) for 5 min. After PBS wash, the coverslips were carefully removed from the wells and mounted with ProLong™ Gold Antifade Mountant (Invitrogen, P10144). The cells were immediately visualized within 60 min using the Carl Zeiss Axio Observer fluorescence microscope. Fluorescence was quantified by drawing the ROI around individual cells to measure the green channel intensity (5-FAM-DpPorA DE). Integrated Density was measured using ImageJ software for 50 cells per group. […]
g) Preparation of DDM and peptides for testing on cancer cells
Lyophilized DpPorA, LpPorA, DpPorA DE, LpPorA DE and 5-FAM-DpPorA DE were reconstituted in 0.1% DDM [1 µL of 100 µg mL-1 DDM (Sigma-Aldrich Merck, D5172) in PBS (Gibco - 14040)], resulting in a peptide concentration of 1.7 mM. Subsequent concentrations were diluted with DMEM, 10% FBS, and 1% Penicillin /Streptomycin-containing media. (Supplementary Table 2) h) Cell membrane integrity analysis and statistics
(§1) Immunofluorescence (IF) images were analyzed to assess the impact of different treatments on cell membrane integrity. Cells were categorized into Intact and Disrupted groups based on membrane integrity observed by CellMask cell membrane staining. We evaluated a t least 100 cells for each group - Control, DDM-treated cells and peptide-treated cells- with independent analysis done by a student blinded to the groups' identity . […]
indicating a loss of cell membrane integrity. This categorization provided a clear and systematic approach to quantify the effects of various treatments on cell membrane integrity.
For three independent experiments, data in bar graphs represent mean (± standard deviation) fold change relative to Control groups. Differences between the two datasets were assessed using Welch’s test. Statistical significance is indicated as: *p<0.05, **p<0.01, ***p<0.001,

[2] = system: MDA-MB-231 cells; format: cell-based, human; details: 10 µM and 20 µM, 24 h, MTT, n = 3
Method: The MDA-MB-231 cell line was obtained from ATCC (Kind gift from Dr. Annapoorni Rangarajan, Indian Institute of Science, Bengaluru, Karnataka, India) and tested negative for mycoplasma contamination. Cells were cultured in DMEM (Gibco, 11965-092) supplemented with 10% FBS (Thermo Fisher Scientific, 10270-106) and Penicillin (100 Units/mL) /Streptomycin (100 µg/mL) (Thermo Fisher Scientific, 15070-063). […] Cell proliferation was measured 24 h after the addition of Peptide/ DDM using MTT assay (3-(4,5-dimethylthiazol-2-yl)-2,5-diphenyltetrazolium bromide, M6494, Thermo Fischer Scientific). […] The purple-colored formazan crystals were dissolved by adding 100 µL DMSO (D5879, Sigma Aldrich), and the absorbance at 570 nm was measured using a plate reader (EMax plus microplate reader). […]
as §1, with “Cells were categorized into Intact and Disrupted groups based on membrane integrity observed by CellMask cell membrane staining.” left out
indicating a loss of cell membrane integrity. This categorization provided a clear and systematic approach to quantify the effects of various treatments on cell membrane integrity. […]

Compound: CC[C@@H](C)[C@@H](NC(=O)[C@H](N)CCSC)C(=O)N[C@H](CC(=O)O)C(=O)N[C@H](CCC(N)=O)C(=O)N[C@@H](C(=O)N[C@@H](C(=O)N[C@H](CCC(=O)O)C(=O)N[C@@H](C(=O)N[C@H](Cc1ccccc1)C(=O)NCC(=O)N[C@H](CCC(N)=O)C(=O)N[C@H](CC(C)C)C(=O)NCC(=O)N[C@@H](C(=O)N[C@H](Cc1ccccc1)C(=O)N[C@H](CC(C)C)C(=O)NCC(=O)NCC(=O)N[C@H](Cc1ccccc1)C(=O)NCC(=O)N[C@H](CC(N)=O)C(=O)N[C@@H](C(=O)N[C@H](Cc1ccccc1)C(=O)N[C@H](CCCCN)C(=O)NCC(=O)N[C@H](CC(C)C)C(=O)N[C@H](CCCCN)C(=O)N[C@H](C)C(=O)N[C@@H](C(=O)N[C@@H](C(=O)N[C@H](C)C(=O)N[C@@H](C(=O)N[C@@H](C(=O)N[C@@H](C(=O)N[C@H](CCCCN)C(=O)N[C@H](Cc1c[nH]c2ccccc12)C(=O)N[C@@H](C(=O)N[C@H](C)C(=O)N[C@H](C)C(=O)N[C@H](CCCCN)C(=O)O)[C@H](C)O)C(C)C)[C@H](C)CC)[C@H](C)O)[C@H](C)CC)C(C)C)[C@H](C)CC)[C@H](C)O)[C@H](C)CC)[C@H](C)O)[C@H](C)CC [DpPorA DE] (H-[dM][dI][dD][dQ][dI][dT][dE][dI][dF]G[dQ][dL]G[dT][dF][dL]GG[dF]G[dN][dI][dF][dK]G[dL][dK][dA][dV][dI][dA][dT][dI][dV][dK][dW][dT][dA][dA][dK]-OH; N-terminus and C-terminus assumed)
- Cell number, Disrupted phenotype [1]: 158
- Cell number, Intact phenotype [1]: 1
- cells with Disrupted membrane phenotype ([1]; at least 100 cells): 99.37%
- cells with Intact membrane phenotype ([1]; at least 100 cells): 0.63%

Compound: CC[C@@H](C)[C@@H](NC(=O)[C@H](N)CCSC)C(=O)N[C@H](CC(=O)O)C(=O)N[C@H](CCC(N)=O)C(=O)N[C@@H](C(=O)N[C@@H](C(=O)N[C@H](CCC(=O)O)C(=O)N[C@@H](C(=O)N[C@H](Cc1ccccc1)C(=O)NCC(=O)N[C@H](CCC(N)=O)C(=O)N[C@H](CC(C)C)C(=O)NCC(=O)N[C@@H](C(=O)N[C@H](Cc1ccccc1)C(=O)N[C@H](CC(C)C)C(=O)NCC(=O)NCC(=O)N[C@H](Cc1ccccc1)C(=O)NCC(=O)N[C@H](CC(N)=O)C(=O)N[C@@H](C(=O)N[C@H](Cc1ccccc1)C(=O)N[C@H](CCCCN)C(=O)NCC(=O)N[C@H](CC(C)C)C(=O)N[C@H](CCCCN)C(=O)N[C@H](CC(=O)O)C(=O)N[C@@H](C(=O)N[C@@H](C(=O)N[C@H](CCC(=O)O)C(=O)N[C@@H](C(=O)N[C@@H](C(=O)N[C@@H](C(=O)N[C@H](CCCCN)C(=O)N[C@H](Cc1c[nH]c2ccccc12)C(=O)N[C@@H](C(=O)N[C@H](C)C(=O)N[C@H](C)C(=O)N[C@H](CCCCN)C(=O)O)[C@H](C)O)C(C)C)[C@H](C)CC)[C@H](C)O)[C@H](C)CC)C(C)C)[C@H](C)CC)[C@H](C)O)[C@H](C)CC)[C@H](C)O)[C@H](C)CC [DpPorA] (H-[dM][dI][dD][dQ][dI][dT][dE][dI][dF]G[dQ][dL]G[dT][dF][dL]GG[dF]G[dN][dI][dF][dK]G[dL][dK][dD][dV][dI][dE][dT][dI][dV][dK][dW][dT][dA][dA][dK]-OH; N-terminus and C-terminus assumed)
- change in cell viability [2]: no significant change in viability
